Our source for the IC50 values is US8946446B2, “Pyrrolo sulfonamide compounds for modulation of orphan nuclear receptor RAR-related orphan receptor-γ (ROR-γ, NR1F3) activity and for the treatment of chronic inflammatory and autoimmune diseases” (Phenex Pharmaceuticals AG, priority 2011, dated 2015).

For the test, the target named is T1, RORγ ligand binding domain (LBD) (Homo sapiens, UniProt P51449).
T1 construct: made in house; host or cells: E. coli BL-21 (BL3), vector pDEST15
T1 sequence (P51449 269-508 limits assumed): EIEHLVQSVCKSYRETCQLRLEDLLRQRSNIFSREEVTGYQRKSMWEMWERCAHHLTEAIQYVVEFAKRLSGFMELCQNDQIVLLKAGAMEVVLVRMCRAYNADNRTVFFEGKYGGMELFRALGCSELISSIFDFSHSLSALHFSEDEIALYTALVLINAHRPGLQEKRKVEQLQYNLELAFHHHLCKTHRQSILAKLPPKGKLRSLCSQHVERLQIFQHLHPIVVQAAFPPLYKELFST
In words: TR-FRET Activity Assay (ligand sensing, RORγ-LBD / coactivator peptide interaction). It counts as biochemical. An excerpt:
This method measures the ability of putative ligands to modulate the interaction between the purified bacterial expressed RORγ ligand binding domain (LBD) and synthetic N-terminally biotinylated peptides which are derived from nuclear receptor coactivator proteins such as but not limited to SRC1 (NcoA1), SRC2 (NcoA2, TIF2), SRC3 (NcoA3), PGC1α, PGC1β, CBP, GRIP1, TRAP220, RIP140.
The ligand-binding domain (LBD) of RORγ was expressed as fusion protein with GST in […] cells using the vector pDEST15. Cells were lysed by lysozyme-treatment and sonication, and the fusion proteins purified over glutathione sepharose (Pharmacia) according to the manufacturers instructions. For screening of compounds for their influence on the RORγ-peptide interaction, the LANCE technology (Perkin Elmer) was applied. This method relies on the binding dependent energy transfer from a donor to an acceptor fluorophor attached to the binding partner of interest. For ease of handling and reduction of background from compound fluorescence LANCE technology makes use of generic fluorophore labels and time resolved detection assays were done in a final volume of 25 μL in a 384 well plate, in a Tris-based buffer system (20 mM Tris-HCl pH6.8; 60 mM KCl, 1 mM DTT; 5 mM MgCl2; 35 ng/μL BSA), containing 20-60 ng/well recombinantly expressed RORγ-LBD fused to GST, 200-600 nM N-terminally biotinylated peptide, 200 ng/well Streptavidin-xIAPC conjugate (Prozyme) and 6-10 ng/well Eu W1024-antiGST (Perkin Elmer). DMSO content of the samples was kept at 1%.
After generation of the Tris-based buffer system, the potentially RORγ modulating ligands were diluted. […] The LANCE signal was detected by a Perkin Elmer EnVision™ Multilabel Counter. The results were visualized by plotting the ratio between the emitted light at 665 nm and 615 nm. […] Ligands that promote the complex formation induce a concentration-dependent increase in time-resolved fluorescent signal.
The normalised TR-FRET assay values, using the following equation: 1000*665 nm measurement value/615 nm measurement value, were transferred to the program GraphPad Prism to generate graphs and dose response curves using the following equation:
Equation: Sigmoidal Dose-Response (Variable Slope) Y=Bottom+(Top-Bottom)/(1+10^((LogEC50−X)*HillSlope)) X is the logarithm of the concentration. Y is the response. Y starts at Bottom and goes to Top with a sigmoidal shape.
This is identical to the “four parameter logistic equation”. The IC50 values are calculated using this equation.

[1] abbreviates: read-out: RORγ activity in the TR-FRET Activity Assay (IC50 FRET), Group.

Where two headings read alike, the source gives them in different places. Where only a bound is given, the exact number is not on record here.

Regarding `Cc1c(S(N)(=O)=O)cc(-c2cc(OC(C)C)cc(C(C)(C)C)c2)n1CC1CCCCC1` [16/2], the IC50 under setting [1] lay within 500 to 2000 nM.
For `Cc1c(S(N)(=O)=O)cc(-c2cc(OCC3CC3)cc(C(C)(C)C)c2)n1CC1CCCCC1` [16/3], the 50% inhibitory concentration (IC50) under setting [1] lay in the range of 500 to 2000 nM.
The compound `Cc1c(S(N)(=O)=O)cc(-c2cc(C(C)(C)C)c(OCCO)c(C(C)(C)C)c2)n1CC1CCCCC1` [16/8] showed an IC50 of 500 to 2000 nM.
With `Cc1c(S(N)(=O)=O)cc(-c2cc(C(C)(C)C)c(OCC(=O)O)c(C(C)(C)C)c2)n1CC1CCCCC1` [16/9], the IC50 is > 2000 nM.
For `CNC(=O)COc1c(C(C)(C)C)cc(-c2cc(S(N)(=O)=O)c(C)n2CC2CCCCC2)cc1C(C)(C)C` [16/10], under setting [1], the IC50 was > 2000 nM.
On the same count and under the same terms, for `COCCOc1c(C(C)(C)C)cc(-c2cc(S(N)(=O)=O)c(C)n2CC2CCCCC2)cc1C(C)(C)C` [16/11] the value was 500 to 2000 nM; for `COc1cc(-c2cc(S(N)(=O)=O)c(C)n2CC2CCCCC2)cc(C(C)(C)C)n1` [17/1], > 2000 nM.
The same measure, in the same setting: for `CCOc1cc(-c2cc(S(N)(=O)=O)c(C)n2CC2CCCCC2)cc(C(C)(C)C)n1` [17/2] the value was 500 to 2000 nM.
As to `Cc1c(S(N)(=O)=O)cc(-c2cc(OCCCN3CCOCC3)nc(C(C)(C)C)c2)n1CC1CCCCC1` [17/3], the 50% inhibitory concentration (IC50) under setting [1] was > 2000 nM.
The same measure, in the same setting: for `COCCOc1cc(-c2cc(S(N)(=O)=O)c(C)n2CC2CCCCC2)cc(C(C)(C)C)n1` [17/4] the value was 500 to 2000 nM.
Take `Cc1c(S(N)(=O)=O)cc(-c2ccc(S(=O)(=O)NC(C)(C)C)c(C(C)(C)C)c2)n1CC1CCCCC1` [22/1]: the half-maximal inhibitory concentration (IC50) under setting [1] lay in the range of 500 to 2000 nM.
Consider `Cc1c(S(N)(=O)=O)cc(-c2ccc(S(=O)(=O)N(C)C(C)(C)C)c(C(C)(C)C)c2)n1CC1CCCCC1` [22/2], for which, under setting [1], the IC50 was < 500 nM.
Still for that read-out and setting: for `Cc1c(S(N)(=O)=O)cc(-c2cc(C(C)(C)C)cc(S(=O)(=O)NC(C)(C)C)c2)n1CC1CCCCC1` [22/3] the value was > 2000 nM.
On to `Cc1c(S(N)(=O)=O)cc(-c2cc(C(C)(C)C)cc(S(=O)(=O)N(C)C(C)(C)C)c2)n1CC1CCCCC1` [22/4], for which the IC50 fell in the range of 500 to 2000 nM.
As to `Cc1c(S(N)(=O)=O)cc(-c2ccc(S(=O)(=O)NC(C)(C)C)c(C(F)(F)F)c2)n1CC1CCCCC1` [22/5], the concentration for half-maximal inhibition (IC50) under setting [1] is < 500 nM.
In the case of `CCC(C)(C)NS(=O)(=O)c1ccc(-c2cc(S(N)(=O)=O)c(C)n2CC2CCCCC2)cc1C(F)(F)F` [22/6], under setting [1], the IC50 is < 500 nM.
Consider `Cc1c(S(N)(=O)=O)cc(-c2ccc(S(=O)(=O)N3CCCCC3(C)C)c(C(F)(F)F)c2)n1CC1CCCCC1` [22/9], for which the IC50 under setting [1] is 500 to 2000 nM.
For `Cc1c(S(N)(=O)=O)cc(-c2ccc(S(=O)(=O)NC(C)(C)C)c(C3(C)CC3)c2)n1CC1CCCCC1` [22/18], the IC50 under setting [1] is < 500 nM.
As to `Cc1c(S(N)(=O)=O)cc(-c2cnc(OCC(C)(C)C)c(C(F)(F)F)c2)n1CC1CCCCC1` [34/4], under setting [1], the IC50 was > 2000 nM.
`Cc1c(S(N)(=O)=O)cc(-c2cnc(NCC(C)(C)C)c(C(F)(F)F)c2)n1CC1CCCCC1` [34/5]: the IC50 under setting [1] was 500 to 2000 nM.
Take `CCC(=O)NCC(C)(C)c1cc(-c2cc(S(N)(=O)=O)c(C)n2CC2CCCCC2)cc(C(C)(C)C)c1` [49/1]: under setting [1], the IC50 was > 2000 nM.
The same measure, in the same setting: for `Cc1c(S(N)(=O)=O)cc(-c2cc(C(C)(C)C)cc(C(C)(C)CNC(=O)C3CC3)c2)n1CC1CCCCC1` [49/2] the value was > 2000 nM; for `Cc1c(S(N)(=O)=O)cc(-c2cn(S(=O)(=O)c3cccc(Cl)c3)c3ccccc23)n1CC1CCCCC1` [53/1], > 2000 nM; for `Cc1c(S(N)(=O)=O)cc(C2=CC(S(=O)(=O)c3ccc(Cl)cc3)c3ccccc32)n1CC1CCCCC1` (stereo not shown) [53/2], 500 to 2000 nM.
Same read-out and setting: for `Cc1c(S(N)(=O)=O)cc(-c2cc(C(C)(C)C)cc(C(C)(C)C)c2)n1CC1CCCCC1` [Example 1, 1-(Cyclohexylmethyl)-5-(3,5-di-tert-butylphenyl)-2-methyl-1H-pyrrole-3-sulfonamide] the value was < 500 nM.
For `CCNS(=O)(=O)c1cc(-c2cc(C(C)(C)C)cc(C(C)(C)C)c2)n(CC2CCCCC2)c1C` [Example 2, 1-(Cyclohexylmethyl)-5-(3,5-di-tert-butylphenyl)-N-ethyl-2-methyl-1H-pyrrole-3-sulfonamide], the half-inhibitory concentration (IC50) was < 500 nM.
The same measure, in the same setting: with `COCCNS(=O)(=O)c1cc(-c2cc(C(C)(C)C)cc(C(C)(C)C)c2)n(CC2CCCCC2)c1C` [Example 2/1] the figure was < 500 nM.
In the case of `Cc1c(S(=O)(=O)NC2CC2)cc(-c2cc(C(C)(C)C)cc(C(C)(C)C)c2)n1CC1CCCCC1` [Example 3, 1-(Cyclohexylmethyl)-N-cyclopropyl-5-(3,5-di-tert-butylphenyl)-2-methyl-1H-pyrrole-3-sulfonamide], the IC50 under setting [1] is < 500 nM.
Same read-out and setting: with `Cc1c(S(=O)(=O)NCCCCCO)cc(-c2cc(C(C)(C)C)cc(C(C)(C)C)c2)n1CC1CCCCC1` [Example 5] the figure was < 500 nM.
`CC(=NO)c1cc(-c2cc(S(N)(=O)=O)c(C)n2CC2CCCCC2)cc(C(C)(C)C)c1` [Example 6, 5-(3-(tert-Butyl)-5-(1-(hydroxyimino)ethyl)phenyl)-1-(cyclohexylmethyl)-2-methyl-1H-pyrrole-3-sulfonamide] showed an IC50 of 500 to 2000 nM.
`Cc1c(S(N)(=O)=O)cc(-c2cc3c(c(C(C)(C)C)c2)OCCC3=NO)n1CC1CCCCC1` [Example 6/1, 5-(8-(tert-Butyl)-4-(hydroxyimino)chroman-6-yl)-1-(cyclohexylmethyl)-2-methyl-1H-pyrrole-3-sulfonamide]: the IC50 under setting [1] was > 2000 nM.
As to `Cc1c(S(N)(=O)=O)cc(-c2cc(C(C)(C)C)cc(C(C)(F)F)c2)n1CC1CCCCC1` [Example 7, 5-(3-(tert-Butyl)-5-(1,1-difluoroethyl)phenyl)-1-(cyclohexylmethyl)-2-methyl-1H-pyrrole-3-sulfonamide], under setting [1], the IC50 is < 500 nM.
With `Cc1c(S(N)(=O)=O)cc(-c2cc(C(C)(C)C)c(C(=O)O)c(C(C)(C)C)c2)n1CC1CCCCC1` [Example 8, 2,6-Di-tert-butyl-4-(1-(cyclohexylmethyl)-5-methyl-4-sulfamoyl-1H-pyrrol-2-yl)benzoic acid], the IC50 under setting [1] was > 2000 nM.
Still for that read-out and setting: for `Cc1c(S(N)(=O)=O)cc(-c2cc(C(C)(C)C)c(C#N)c(C(C)(C)C)c2)n1CC1CCCCC1` [Example 9, 1-(Cyclohexylmethyl)-5-(3,5-di-tert-butyl-4-cyanophenyl)-2-methyl-1H-pyrrole-3-sulfonamide] the value was < 500 nM.
Regarding `Cc1c(S(=O)(=O)NCC(C)(C)C(=O)O)cc(-c2ccc(S(=O)(=O)NC(C)(C)C)c(C(C)(C)C)c2)n1CC1CCCCC1` [Example 11, 3-(5-(3-(tert-Butyl)-4-(N-(tert-butyl)sulfamoyl)phenyl)-1-(cyclohexylmethyl)-2-methyl-1H-pyrrole-3-sulfonamido)-2,2-dimethylpropanoic acid], the IC50 under setting [1] was > 2000 nM.
Still for that read-out and setting: for `Cc1c(S(N)(=O)=O)cc(-c2cc(C(=O)NCC(C)C)cc(C(C)(C)C)c2)n1CC1CCCCC1` [Example 13, 3-(tert-Butyl)-5-(1-(cyclohexylmethyl)-5-methyl-4-sulfamoyl-1H-pyrrol-2-yl)-N-isobutylbenzamide] the value was 500 to 2000 nM; for `Cc1c(S(N)(=O)=O)cc(-c2cc(O)cc(C(C)(C)C)c2)n1CC1CCCCC1` [Example 14, 5-(3-(tert-Butyl)-5-hydroxyphenyl)-1-(cyclohexylmethyl)-2-methyl-1H-pyrrole-3-sulfonamide], > 2000 nM.

One may read the IC50 as the point on the concentration scale where inhibition reaches its midpoint.
